In patent publication US6833489B1, “Assays for modulators of prolyl-4-hydroxylase” (Wisconsin Alumni Research Foundation, priority 1999, dated 2004):

Tested on: C. elegans wild-type, dpy-18(ok162) or phy-2(ok177)
Assay: Exposure of adult hermaphrodites to inhibitors, lethality of progeny
Type: in vivo, Caenorhabditis elegans
Conditions: regardless of genotype (wild-type
Description: All wild-type C. elegans were from an N2 Bristol strain. Worms were cultured at 20° C. under standard conditions unless otherwise noted (J. E. Sulston and J. Hodgkin, Methods. In The Nematode Caenorhabditis elegans, pp. 587-606, 1988). LG II:unc-4(e120) was used as a marker for transgenic assays. LG III:dpy-18(ok162) is a deletion mutation isolated specifically as a knock-out of the prolyl 4-hydroxylase on chromosome III. […] 11 alleles (mutations in the dpy-18 gene) are known—dpy-18: e346, e364, e499, e1096, e1270, e1862, h662, s361, s1304, s1305, s1306. LG IV:unc-22(e66) is a mutation that can be used to recognize chromosome IV, and poh-1(ok-177) is a deletion mutation isolated specifically as a knock-out of the prolyl 4-hydroxylase gene on chromosome IV.
Small molecules that inhibit protein function can be used to confirm and extend results from genetic experiments. We tested two known prolyl 4-hydroxylase inhibitors for their effects on C. elegans. […] Both inhibitors limit prolyl 4-hydroxylase activity in cells, where their esters are hydrolyzed to form competitors of α-ketoglutarate. We also tested Inhibitor III (which is similar in structure to Inhibitor II) and Inhibitor IV (which is similar in structure to Inhibitor I). Neither Inhibitor III nor […] is known to limit prolyl 4-hydroxylase activity in cells. […]

| Structure (SMILES) | lethality of progeny (high level 2.7 μM, FIG. 2A) | lethality of progeny (high level 1.3 μM, FIG. 2B) |
| --- | --- | --- |
| CCOC(=O)c1ccnc(C(=O)OCC)c1 [Inhibitor I, 2,4-diethylpyridine dicarboxylate] | all progeny died |  |
| COC(=O)CNC(=O)C(=O)OC [Inhibitor II, dimethyloxalylglycine] |  | all progeny died |
